Earlier results in US6403864B1, “Precursor polypeptide of a plant growth factor, a gene encoding a precursor polypeptide of a plant growth factor and a method for promotion of plant growth” (Nagoya University, priority 1999, dated 2002).
Where no end group is shown, it is not given here. [ ]: non-standard residue; d: D form. sY = N[C@@H](Cc1ccc(OS(=O)(=O)O)cc1)C(=O)O

Test system: plant cell
Settings: compared with PSK-α

## [sY]I[sY]T [PSK-β]
  Cell proliferation activity relative to PSK-α: less than one-tenth
